One series deals with T1, CYP2B6 (Homo sapiens, UniProt P20813).
T1 construct: tissue Corning Life Sciences 452161; host or cells: pooled human liver microsomes
T1 sequence (P20813 1-491): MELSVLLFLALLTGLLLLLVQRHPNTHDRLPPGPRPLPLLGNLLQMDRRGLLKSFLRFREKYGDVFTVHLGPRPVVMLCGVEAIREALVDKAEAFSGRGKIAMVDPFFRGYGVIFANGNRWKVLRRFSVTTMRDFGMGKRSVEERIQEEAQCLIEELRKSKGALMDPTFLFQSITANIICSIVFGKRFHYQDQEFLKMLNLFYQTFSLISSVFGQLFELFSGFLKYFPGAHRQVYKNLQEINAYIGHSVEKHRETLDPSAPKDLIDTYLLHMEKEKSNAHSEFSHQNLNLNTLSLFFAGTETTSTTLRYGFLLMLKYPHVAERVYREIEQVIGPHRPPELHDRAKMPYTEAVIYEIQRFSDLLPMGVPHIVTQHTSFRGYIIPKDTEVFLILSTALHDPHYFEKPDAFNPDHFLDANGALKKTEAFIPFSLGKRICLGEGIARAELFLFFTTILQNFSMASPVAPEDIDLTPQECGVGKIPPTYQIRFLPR
The series is described as follows: CYP2B6-catalyzed bupropion hydroxylase inhibition in pooled human liver microsomes. The format is in vitro ADME. To be noted: for pIC50: CYP2B6 bupropion hydroxylase, 50 µM bupropion. How it is done:
The effects of aschantin on CYP2B6-catalyzed bupropion hydroxylase activity were evaluated using LC-MS/MS with pooled human liver microsomes. […] The reaction was initiated by adding bupropion. Hydroxybupropion levels were determined using the LC-MS/MS method described above; the SRM parameters were 256.1 > 238.0 for hydroxybupropion and 287.2 > 187.0 for d9-1′-hydroxybufuralol.
A general note: Liver microsomes are a subcellular fraction often used to study metabolism.

In a further series the target is T2, UGT1A1 (Homo sapiens, UniProt P22309).
T2 construct: using pooled human liver microsomes incubated with the cocktail of UGT substrates; tissue Corning Life Sciences 452161; host or cells: pooled human liver microsomes
T2 sequence (P22309 26-533): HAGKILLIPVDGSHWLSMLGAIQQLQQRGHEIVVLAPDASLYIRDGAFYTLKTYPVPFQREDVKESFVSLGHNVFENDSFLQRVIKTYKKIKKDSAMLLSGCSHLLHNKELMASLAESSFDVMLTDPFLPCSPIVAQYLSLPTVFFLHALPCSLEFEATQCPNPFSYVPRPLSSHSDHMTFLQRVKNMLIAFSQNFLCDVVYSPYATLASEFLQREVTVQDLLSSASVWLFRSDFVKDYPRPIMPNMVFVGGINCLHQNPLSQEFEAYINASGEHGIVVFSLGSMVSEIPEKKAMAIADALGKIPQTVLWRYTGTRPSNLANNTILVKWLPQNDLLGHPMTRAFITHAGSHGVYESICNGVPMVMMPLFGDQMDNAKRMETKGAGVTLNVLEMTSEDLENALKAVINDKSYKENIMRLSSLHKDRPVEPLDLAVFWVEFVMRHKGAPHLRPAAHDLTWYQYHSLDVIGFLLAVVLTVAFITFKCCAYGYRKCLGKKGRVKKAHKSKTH
The series is described as follows: UGT1A1-catalyzed SN-38 glucuronidation inhibition in pooled human liver microsomes. The format is in vitro ADME. The conditions noted are these: 0.5 µM SN-38, pooled human liver microsomes. How it is done:
(§1) The extents of aschantin on UGT1A1, UGT1A3, UGT1A4, UGT1A6, UGT1A9, and UGT2B7 were evaluated by LC-MS/MS, using pooled human liver microsomes incubated with the cocktail of UGT substrates. The method was modified from that of Joo et al..
(§2) The metabolites formed from the six UGT cocktail substrates were simultaneously measured using the LC-MS/MS method. […] The mass spectrometer was equipped with an ESI source and was operated in both positive and negative ion modes. […] Each metabolite was quantified via SRM in the negative ion (chenodeoxycholic acid 24-acyl-β-glucuronide, 567.2 > 391.0; mycophenolic acid glucuronide, 495.2 > 318.9; propofol glucuronide, 353.3 > 177.1) and positive ion (SN-38 glucuronide, 569.0 > 393.0; trifluoperazine glucuronide, 584.2 > 408.1; N-acetylserotonin-β-D-glucuronide, 395.2 > 219.0; naloxone 3-β-D-glucuronide, 504.0 > 310.0; meloxicam, 352.0 > 115.1) modes.

In a further series the target is T3, UGT1A4 (Homo sapiens, UniProt P22310).
T3 construct: using pooled human liver microsomes incubated with the cocktail of UGT substrates; tissue Corning Life Sciences 452161; host or cells: pooled human liver microsomes
T3 sequence (P22310 29-534): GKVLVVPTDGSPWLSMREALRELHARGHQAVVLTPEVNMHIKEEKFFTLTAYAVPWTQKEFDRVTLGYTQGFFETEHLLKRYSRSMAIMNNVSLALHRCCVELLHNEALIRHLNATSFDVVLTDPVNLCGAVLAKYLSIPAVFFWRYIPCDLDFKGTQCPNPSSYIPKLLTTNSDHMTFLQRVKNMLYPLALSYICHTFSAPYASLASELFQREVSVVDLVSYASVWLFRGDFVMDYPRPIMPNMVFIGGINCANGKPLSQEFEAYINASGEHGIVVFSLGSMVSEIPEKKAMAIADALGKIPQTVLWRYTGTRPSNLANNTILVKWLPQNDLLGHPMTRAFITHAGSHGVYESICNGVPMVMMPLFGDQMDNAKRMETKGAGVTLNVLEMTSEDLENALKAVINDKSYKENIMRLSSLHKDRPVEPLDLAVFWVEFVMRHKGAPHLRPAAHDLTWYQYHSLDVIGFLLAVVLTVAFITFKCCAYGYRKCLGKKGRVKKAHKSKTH
The series is described as follows: UGT1A4-catalyzed trifluoperazine N-glucuronidation inhibition in pooled human liver microsomes. The format is in vitro ADME. How it is done:
as §1, §2

Another series concerns the target CYP2D6 (Homo sapiens, UniProt P10635). The series is described as follows: CYP2D6-catalyzed bufuralol 1′-hydroxylase inhibition in pooled human liver microsomes.
The mark [1] stands for this setting: aschantin at 100 µM, human liver microsomes.

pIC50: −log10 of the molar value. Read-outs that look alike come from different tables or passages of the source.

This note sets out measurements from publication PMC6273138, “Inhibitory Effects of Aschantin on Cytochrome P450 and Uridine 5′-diphospho-glucuronosyltransferase Enzyme Activities in Human Liver Microsomes” (Molecules, 2016).

CYP2D6, sequence (P10635 whole entry): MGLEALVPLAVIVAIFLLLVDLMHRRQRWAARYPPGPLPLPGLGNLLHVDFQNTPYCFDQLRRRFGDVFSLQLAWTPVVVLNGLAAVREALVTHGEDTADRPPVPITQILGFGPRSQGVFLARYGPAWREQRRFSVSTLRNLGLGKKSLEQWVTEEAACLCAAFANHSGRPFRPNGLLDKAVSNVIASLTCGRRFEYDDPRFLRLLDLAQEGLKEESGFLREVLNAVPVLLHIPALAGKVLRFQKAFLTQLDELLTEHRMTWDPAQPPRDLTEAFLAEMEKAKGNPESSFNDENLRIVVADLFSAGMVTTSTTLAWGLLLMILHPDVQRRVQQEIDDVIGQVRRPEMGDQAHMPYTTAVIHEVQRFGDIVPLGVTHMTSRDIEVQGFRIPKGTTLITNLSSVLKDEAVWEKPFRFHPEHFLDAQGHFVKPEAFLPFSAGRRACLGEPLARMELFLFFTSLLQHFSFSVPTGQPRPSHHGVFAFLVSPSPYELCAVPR

Broadly, the pIC50 is the IC50 on a negative log10 scale, so that one unit is a factor of ten. On to `COc1cc([C@H]2OC[C@H]3[C@@H]2CO[C@@H]3c2ccc3c(c2)OCO3)cc(OC)c1OC` [Aschantin], for which the pIC50 at CYP2B6 (30 min pre-incubation with microsomes and NADPH, read-out: IC50 With Pre-incubation) is 4.06; on CYP2B6 (pooled human liver microsomes, no pre-incubation, read-out: IC50 No Pre-incubation) it was less than 4.00; at UGT1A1, 3.88; at UGT1A4 (UGT1A4-catalyzed trifluoperazine N-glucuronidation, 0.5 µM trifluoperazine, pooled human liver microsomes), less than 3.70; against CYP2D6 it was less than 4.00; on CYP2D6 (read-out: IC50 With Pre-incubation, CYP2D6 bufuralol 1′-hydroxylase, 5.0 µM bufuralol, 30 min pre-incubation with microsomes and NADPH), less than 4.00. In addition, the “inhibition of CYP2B6-mediated bupropion hydroxylation” value on CYP2B6 (setting [1]) is given as “negligibly inhibited”. In addition, the “inhibition of UGT1A4-catalyzed trifluoperazine N-glucuronidation” value at UGT1A4 (aschantin at 200 µM, human liver microsomes) is given as “not inhibited”. Further, the “inhibition of CYP2D6-mediated bufuralol 1′-hydroxylation” value at CYP2D6 (setting [1]) was “negligibly inhibited”.
